Where two headings read alike, the source gives them in different places.
Tests used:
[1] = target: T1, human recombinant 5-HT2C receptor (Homo sapiens, UniProt P28335); assay: Test Example 2-2: 5-HT2C receptor binding inhibition test ([3H]-Mesulergine; non-specific ligand Ketanserin); settings: non-specific binding with 500 µmol/L Ketanserin, 37°C, 2 hours
T1 construct: expressed in transfected cells; host or cells: Jump-In HEK cells (membrane preparation)
T1 sequence (P28335 33-458): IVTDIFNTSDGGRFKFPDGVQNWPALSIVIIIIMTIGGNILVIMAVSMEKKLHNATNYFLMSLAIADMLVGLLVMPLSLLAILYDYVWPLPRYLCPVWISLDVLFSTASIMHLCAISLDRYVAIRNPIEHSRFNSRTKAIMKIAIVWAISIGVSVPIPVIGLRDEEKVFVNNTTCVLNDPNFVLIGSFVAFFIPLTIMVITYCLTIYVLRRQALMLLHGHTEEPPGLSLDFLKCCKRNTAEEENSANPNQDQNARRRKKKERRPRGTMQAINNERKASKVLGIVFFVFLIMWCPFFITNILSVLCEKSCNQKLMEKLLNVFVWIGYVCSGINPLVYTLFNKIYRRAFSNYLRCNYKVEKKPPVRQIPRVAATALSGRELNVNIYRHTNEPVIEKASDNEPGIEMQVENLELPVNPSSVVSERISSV
In short: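 Membranes expressing the receptor were incubated with compound and [3H]-Mesulergine for 2 h at 37 °C, then filtered and counted by scintillation. Non-specific binding was defined with 500 µmol/L Ketanserin. Percent inhibition versus vehicle gave dose-response curves, from which Ki was derived using a Kd from Scatchard saturation analysis.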

[2] = target: T2, human ether-a-go-go related gene (hERG) channel (Homo sapiens, UniProt Q12809); assay: Test Example 3: hERG test (FluxORII thallium flux, FLIPR, 8000 cells/well); type: cell-based; settings: CHO cells expressing hERG channel, compound reacted for 10 minutes, 100% inhibition = E-4031 10.3 µmol/L
T2 construct: expressed in transfected cells; host or cells: CHO cells
Protocol: (§1) For the purpose of evaluating risk of an electrocardiogram QT interval prolongation of the compound of the present invention, effects of the compound are studied by evaluating the activity of potassium channel using CHO cells expressing human ether-a-go-go related gene (hERG) channel.
(§2) Evaluation is performed using a FluxORII Green Potassium Ion Channel Assay kit (Invitrogen: Molecular Probes).
Cells (8000 cells/well/40 µL) are seeded in a 384 assay plate, and are incubated overnight (37°C, 5% CO2). […]
(§3) A cell plate is placed on a cell-based kinetic assay system FLIPR (Molecular Devices, LLC.), and the compound is added to the cells so as to have a desired concentration and reacted for 10 minutes. When a mixed solution of potassium and thallium as a stimulator is added thereto, the potassium channel is opened, and thallium that flowed into the cells binds to the fluorescent indicator, so that the intracellular fluorescence signal increases, and the potassium channel current is detected as a fluorescence signal. […] Then, the inhibition rate is calculated from the signal intensity at each concentration. IC50 is calculated from the inhibition rate at each concentration.

[3] = target: T3, human recombinant 5-HT2A receptor (Homo sapiens, UniProt P28223); assay: Test Example 1-2: 5-HT2A receptor binding inhibition test ([3H]-Ketanserin; non-specific ligand Ketanserin)
T3 construct: expressed in transfected cells; host or cells: Jump-In HEK cells (membrane preparation)
In short: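 Membranes expressing the receptor were incubated with [3H]-ketanserin and compound for 1.5 h at 25 °C, then filtered onto plates presoaked in 50 mmol/L Tris-HCl pH 7.4 and scintillation-counted. Non-specific binding was defined with 500 µmol/L unlabeled ketanserin. Ki was taken from dose-response curves, with Kd set for each membrane lot by Scatchard analysis.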

[4] = target: T1, human recombinant 5-HT2C receptor; assay: Test Example 2: 5-HT2C receptor binding inhibition test ([3H]-Mesulergine; non-specific ligand Serotonin HCl); settings: human serotonin 5-HT2C receptor binding activity
In short: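 Filtration binding to membranes bearing human 5-HT2C with [3H]-mesulergine, 2 h at 37°C; non-specific binding defined with 500 µmol/L serotonin HCl, total binding with vehicle. Inhibition rate computed from cpm; Ki derived from dose-response curve, with ligand Kd from Scatchard analysis of saturation binding.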

[5] = target: T2, human ether-a-go-go related gene (hERG) channel; assay: Test Example 3-2: hERG test (FluxORII thallium flux, FLIPR, 4000 cells/well); type: cell-based; settings: CHO cells expressing hERG channel, compound reacted for 10 minutes, 100% inhibition = E-4031 10.3 µmol/L
Protocol: as §1, §2
Cells (4000 cells/well/40 µL) are seeded in a 384 assay plate, and are incubated overnight (37°C, 5% CO2). After replacing the medium with a Wash buffer (lxHBSS, 20 mM HEPES) with a microplate washer, a fluorescent indicator is added to the medium and allowed to incubate (37°C, 5% CO2) for 1 hour for incorporation of the fluorescent indicator into cells.
as §3

[6] = [3H]-Ketanserin, non-specific binding with 500 µmol/L Ketanserin, room temperature (25°C), 1.5 hours, read-out: h 5-HT2A Ki

T2 sequence (Q12809 whole entry): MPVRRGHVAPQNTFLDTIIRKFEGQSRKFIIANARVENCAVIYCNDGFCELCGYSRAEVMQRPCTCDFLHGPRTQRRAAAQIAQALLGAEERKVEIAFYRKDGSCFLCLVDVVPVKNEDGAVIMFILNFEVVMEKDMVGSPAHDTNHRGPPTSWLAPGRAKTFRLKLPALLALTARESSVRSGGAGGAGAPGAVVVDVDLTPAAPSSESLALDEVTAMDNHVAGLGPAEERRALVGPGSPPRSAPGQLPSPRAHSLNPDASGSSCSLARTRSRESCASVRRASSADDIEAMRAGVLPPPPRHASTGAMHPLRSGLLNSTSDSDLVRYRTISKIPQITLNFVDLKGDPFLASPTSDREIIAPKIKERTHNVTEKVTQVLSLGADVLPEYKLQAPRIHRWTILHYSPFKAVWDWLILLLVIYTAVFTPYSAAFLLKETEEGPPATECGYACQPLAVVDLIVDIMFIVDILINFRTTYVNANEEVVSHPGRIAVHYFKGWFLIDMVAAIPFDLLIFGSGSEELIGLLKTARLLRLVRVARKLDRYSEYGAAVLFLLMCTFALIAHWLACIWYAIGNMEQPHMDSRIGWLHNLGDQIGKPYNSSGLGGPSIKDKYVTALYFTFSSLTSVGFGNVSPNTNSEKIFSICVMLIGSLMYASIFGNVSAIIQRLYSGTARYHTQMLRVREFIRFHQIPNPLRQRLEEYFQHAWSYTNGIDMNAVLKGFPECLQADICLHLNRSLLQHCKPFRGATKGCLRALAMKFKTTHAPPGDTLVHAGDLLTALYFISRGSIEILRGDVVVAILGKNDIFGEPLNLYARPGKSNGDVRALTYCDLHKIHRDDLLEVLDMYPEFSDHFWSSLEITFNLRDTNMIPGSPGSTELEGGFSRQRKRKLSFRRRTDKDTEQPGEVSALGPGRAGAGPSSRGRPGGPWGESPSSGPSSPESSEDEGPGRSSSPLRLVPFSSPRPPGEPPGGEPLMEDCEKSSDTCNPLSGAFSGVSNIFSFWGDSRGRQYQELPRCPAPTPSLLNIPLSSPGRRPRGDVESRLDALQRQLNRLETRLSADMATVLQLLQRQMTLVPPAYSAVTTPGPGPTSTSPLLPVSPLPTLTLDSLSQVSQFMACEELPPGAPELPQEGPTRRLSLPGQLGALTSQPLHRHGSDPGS
T3 sequence (P28223 whole entry): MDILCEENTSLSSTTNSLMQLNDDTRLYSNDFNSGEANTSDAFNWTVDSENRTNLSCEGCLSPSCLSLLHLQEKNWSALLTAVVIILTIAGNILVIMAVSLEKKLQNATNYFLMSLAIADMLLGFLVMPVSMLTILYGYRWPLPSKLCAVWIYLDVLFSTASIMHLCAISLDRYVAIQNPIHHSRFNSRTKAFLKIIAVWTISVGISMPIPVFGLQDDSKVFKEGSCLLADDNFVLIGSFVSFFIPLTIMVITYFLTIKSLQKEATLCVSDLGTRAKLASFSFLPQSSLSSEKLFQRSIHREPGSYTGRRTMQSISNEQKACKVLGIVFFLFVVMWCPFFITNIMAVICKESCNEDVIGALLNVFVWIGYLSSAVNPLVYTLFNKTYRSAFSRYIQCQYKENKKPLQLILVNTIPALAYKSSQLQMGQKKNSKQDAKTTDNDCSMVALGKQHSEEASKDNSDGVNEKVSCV

Structure (SMILES) | Ki [1] [nM] | IC50 [2] [nM] | Ki [3] [nM] | Ki [4] [nM] | IC50 [5] [nM] | Ki [3, 6] [nM]
Cn1ncc(Br)c1-c1cc(Nc2ncc(C(F)(F)F)cc2F)ncc1OCCO [Compound I-062] | 0.366 | > 52000 | 0.286 | – | – | –
Cc1cnn(C)c1-c1cc(Nc2ncc(C(F)(F)F)cc2F)ncc1OCCO [Compound I-063] | 2.09 | > 52000 | 0.337 | – | – | –
Cc1nc(C)c(-c2nc(Nc3ccc(C(F)(F)F)cc3)c(F)cc2OCCO)c(C)n1 [Compound I-267] | – | – | – | 0.786 | > 52000 | 0.465
CNC(=O)c1ccc(F)c(-c2cc(Nc3ncc(C(F)(F)F)cc3F)ncc2OCCO)c1F [Compound I-359] | – | – | – | 4.57 | > 52000 | 0.952
Cn1ncc(Br)c1-c1cc(Nc2ncc(C(F)(F)F)cc2F)ncc1OC(F)(F)CO [Compound I-228] | – | – | – | 0.748 | 50600 | 0.316
Cc1nc(C)c(-c2cc(Nc3ccc(-c4ccc(F)cc4)cn3)cnc2O[C@H](C)CO)c(C)n1 [Compound I-271] | – | – | – | 3.92 | > 52000 | 0.4
